According to US20220009920A1 (GB005, Inc., priority 2020, published 2022):

How the values were obtained:
Experiment in all cases: Large panel kinase profiling
Assay type in all cases: biochemical
Details in all cases: 1 μM test article, 1 mM ATP
PRKD1 = biological target: T1, PRKD1 (Homo sapiens, UniProt Q15139)
T1 sequence (Q15139 1-912): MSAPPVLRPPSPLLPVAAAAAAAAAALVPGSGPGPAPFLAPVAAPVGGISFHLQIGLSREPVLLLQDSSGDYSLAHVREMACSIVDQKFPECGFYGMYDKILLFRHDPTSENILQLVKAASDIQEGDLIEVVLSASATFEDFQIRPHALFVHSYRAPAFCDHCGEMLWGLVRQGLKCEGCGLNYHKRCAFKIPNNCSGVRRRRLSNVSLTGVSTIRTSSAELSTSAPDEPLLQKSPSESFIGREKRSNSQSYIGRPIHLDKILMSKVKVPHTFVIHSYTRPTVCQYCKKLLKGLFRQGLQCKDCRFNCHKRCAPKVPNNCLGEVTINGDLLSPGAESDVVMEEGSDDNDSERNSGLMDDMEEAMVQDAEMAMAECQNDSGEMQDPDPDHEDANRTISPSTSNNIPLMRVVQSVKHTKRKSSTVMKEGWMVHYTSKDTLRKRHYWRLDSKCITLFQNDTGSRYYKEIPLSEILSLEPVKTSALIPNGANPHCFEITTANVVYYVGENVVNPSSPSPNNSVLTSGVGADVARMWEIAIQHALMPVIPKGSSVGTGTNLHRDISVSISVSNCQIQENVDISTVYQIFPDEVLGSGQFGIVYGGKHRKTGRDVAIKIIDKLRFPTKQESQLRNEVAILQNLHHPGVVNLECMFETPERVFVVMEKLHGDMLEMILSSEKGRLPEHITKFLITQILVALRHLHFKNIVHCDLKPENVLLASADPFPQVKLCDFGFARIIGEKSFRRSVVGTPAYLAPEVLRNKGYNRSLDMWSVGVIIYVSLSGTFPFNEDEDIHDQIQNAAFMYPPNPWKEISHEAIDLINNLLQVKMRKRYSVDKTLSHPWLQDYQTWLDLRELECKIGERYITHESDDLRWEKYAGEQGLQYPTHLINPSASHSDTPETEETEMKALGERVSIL
Method in brief: (§1)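 CSox-Sensor fluorescence readout; test article 1 μM, ATP 1 mM, 30° C.; kinetic reads at 1-min intervals, Ex 360/Em 485 nm.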

SRMS = biological target: T2, SRMS (Homo sapiens, UniProt Q9H3Y6)
T2 construct: AssayQuant Technologies, Inc. (contract assay)
T2 sequence (Q9H3Y6 whole entry, species assumed): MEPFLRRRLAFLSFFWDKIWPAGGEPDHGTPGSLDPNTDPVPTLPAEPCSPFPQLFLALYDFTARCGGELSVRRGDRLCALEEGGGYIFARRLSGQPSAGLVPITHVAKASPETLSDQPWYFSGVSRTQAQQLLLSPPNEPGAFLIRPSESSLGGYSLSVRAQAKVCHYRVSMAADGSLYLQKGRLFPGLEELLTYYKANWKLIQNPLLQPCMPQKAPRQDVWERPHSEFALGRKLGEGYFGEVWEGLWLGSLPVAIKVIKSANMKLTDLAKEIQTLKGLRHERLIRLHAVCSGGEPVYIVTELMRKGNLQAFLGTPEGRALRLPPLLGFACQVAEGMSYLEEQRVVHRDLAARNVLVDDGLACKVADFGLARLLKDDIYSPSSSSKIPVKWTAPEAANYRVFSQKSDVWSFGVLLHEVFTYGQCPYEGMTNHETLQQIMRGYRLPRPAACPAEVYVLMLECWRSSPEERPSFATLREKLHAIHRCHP
Method in brief: as §1

ULK1 = biological target: T3, ULK1 (Homo sapiens, UniProt O75385)
T3 construct: AssayQuant Technologies, Inc. (contract laboratory that ran the panel)
T3 sequence (O75385 1-1050): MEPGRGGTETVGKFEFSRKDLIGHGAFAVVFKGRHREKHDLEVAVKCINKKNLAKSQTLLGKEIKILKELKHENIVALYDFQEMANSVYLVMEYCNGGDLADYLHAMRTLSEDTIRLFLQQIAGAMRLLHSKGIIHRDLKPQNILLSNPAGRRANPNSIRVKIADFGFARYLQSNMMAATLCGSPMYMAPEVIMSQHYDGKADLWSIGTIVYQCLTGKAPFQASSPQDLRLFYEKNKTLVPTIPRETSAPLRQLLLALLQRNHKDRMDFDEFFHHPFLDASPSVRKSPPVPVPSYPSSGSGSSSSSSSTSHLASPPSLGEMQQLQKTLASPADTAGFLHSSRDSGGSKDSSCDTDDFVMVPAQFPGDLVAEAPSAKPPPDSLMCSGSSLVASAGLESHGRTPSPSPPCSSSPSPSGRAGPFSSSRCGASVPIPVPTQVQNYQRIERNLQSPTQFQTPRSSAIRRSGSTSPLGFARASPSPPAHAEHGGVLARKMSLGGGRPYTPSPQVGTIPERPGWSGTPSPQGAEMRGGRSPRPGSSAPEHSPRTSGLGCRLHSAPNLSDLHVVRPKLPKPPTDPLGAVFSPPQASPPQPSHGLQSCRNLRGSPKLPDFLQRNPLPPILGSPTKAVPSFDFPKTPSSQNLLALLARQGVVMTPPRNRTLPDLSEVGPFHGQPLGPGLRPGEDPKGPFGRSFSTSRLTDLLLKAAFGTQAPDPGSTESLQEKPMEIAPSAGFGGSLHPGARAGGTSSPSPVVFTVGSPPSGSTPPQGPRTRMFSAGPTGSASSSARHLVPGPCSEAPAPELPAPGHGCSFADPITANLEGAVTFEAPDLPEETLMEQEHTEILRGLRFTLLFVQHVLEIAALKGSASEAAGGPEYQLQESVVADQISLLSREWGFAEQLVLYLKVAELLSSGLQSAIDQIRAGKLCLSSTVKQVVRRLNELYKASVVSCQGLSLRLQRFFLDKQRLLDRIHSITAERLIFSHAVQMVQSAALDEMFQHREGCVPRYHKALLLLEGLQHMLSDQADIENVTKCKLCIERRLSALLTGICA
Method in brief: as §1

Row | Compound | inhibition at 1 µM (PRKD1) [%] | inhibition at 1 µM (SRMS) [%] | inhibition at 1 µM (ULK1) [%]
1 | C=CC(=O)N1CCCC(c2c(F)cc(C(N)=O)c3[nH]c4c(c23)CCCCC4)C1 (single isomer, unassigned) [Compound 5-6] | -6.6 | -10 | -3.1
2 | C=CC(=O)N1CCC[C@@H](c2c(F)cc(C(N)=O)c3[nH]c4c(c23)CCC4)C1 [Compound 10-2, (S)-8-(1-acryloylpiperidin-3-yl)-7-fluoro-1,2,3,4-tetrahydrocyclo-penta[b]indole-5-carboxamide] | -24.2 | -32 | -6.1
3 | C=CC(=O)N1CCC[C@@H](c2c(F)cc(C(N)=O)c3[nH]c4c(c23)CC2(CC4)CC2)C1 [Compound 6-2, (S)-5-(1-acryloylpiperidin-3-yl)-6-fluoro-1,2,4,9-tetrahydrospiro[carbazole-3,1′-cyclopropane]-8-carboxamide] | -16 | -35.5 | -23.6
